Where a name gives a salt, the structure may show the parent alone.
Assays:
Format in all cases: physicochemical
[1] = Hygroscopicity on storage at controlled temperature/relative humidity (Table 2)
From the text: Crystalline mesylate salt was isolated and characterised using some or all of XRPD, ^1H NMR, DSC, TGA, GVS, IC, PLM, HSM, HPLC and KF (see Table 2).

[2] = Hygroscopicity during long term storage, assessed by Karl Fischer titration; details: double LDPE liners, desiccant pouch, heat-sealed foil bag, HDPE keg
Protocol: The water content of each sample was measured on a Mettler Toledo DL39 Coulometer using Hydranal Coulomat AG reagent and an argon purge. Weighed solid samples were introduced into the vessel on a platinum TGA pan which was connected to a subaseal to avoid water ingress. Approx 10 mg of sample was used per titration and duplicate determinations were made.
(§1) Crystalline (3S)-Tetrahydrofuran-3-yl (4S)-4-isopropyl-1,4,6,7-tetrahydro-5H-imidazo[4,5-c]pyridine-5-carboxylate mesylate was also assessed for stability and hygroscopicity when dispensed in 3 g aliquots in double LDPE liners, sealed with cable tie and placed, with a desiccant pouch into a foil bag, which was subsequently heat-sealed. The foil bag was then placed into an HDPE keg fitted with an HDPE lid. These conditions mirror typical GMP level storage conditions. Stability was assessed by HPLC and hygroscopicity was assessed by Karl Fisher (KF) titration.

[3] = Stability during long term storage, assessed by HPLC; details: double LDPE liners, desiccant pouch, heat-sealed foil bag, HDPE keg
Protocol: Purity analysis was performed on an Agilent HP1100 series system equipped with a diode array detector and using ChemStation software vB.02.01-SR1 using the method detailed below (Table 1).
as §1

[4] = after 6 months at 40° C./75% RH

Structure (SMILES)	Hygroscopicity (time in which the sample deliquesced) ([1]; 25° C./60% RH)	Hygroscopicity (time after which the sample deliquesced) ([1]; 40° C./75% RH)	Stability of the crystalline salt on storage (reduced hygroscopicity) ([1]; temperature of 40° C., relative humidity of 75%)	Water uptake (KF) [2, 4]	Water uptake (KF) ([2]; over 3 years at 25° C./60% RH)	Degradation (HPLC) [3, 4]	Degradation (HPLC) ([3]; over 3 years at 25° C./60% RH)
CC(C)[C@H]1c2[nH]cnc2CCN1C(=O)O[C@H]1CCOC1 [Free base, (3S)-Tetrahydrofuran-3-yl (4S)-4-isopropyl-1,4,6,7-tetrahydro-5H-imidazo[4,5-c]pyridine-5-carboxylate]	25° C./60% RH in <24 h						
CC(C)[C@H]1c2[nH]cnc2CCN1C(=O)O[C@H]1CCOC1 [Crystalline mesylate salt, (3S)-Tetrahydrofuran-3-yl (4S)-4-isopropyl-1,4,6,7-tetrahydro-5H-imidazo[4,5-c]pyridine-5-carboxylate, Methananesulfonic Acid Salt]		3 days	up to three days	0.1%	no water uptake	0.1%	0.1%

— patent US10369139B2, “Crystalline compound as semicarbazide-sensitive amine oxidase (SSAO) enzyme inhibitor” (BENEVOLENTAI CAMBRIDGE LIMITED, priority 2015, dated 2019)
